Results taken from US8207216B2, “Benzofuran-3-yl(indol-3-yl) maleimides as potent GSK3 inhibitors” (The Board of Trustees of the University of Illinois, priority 2006, dated 2012).

Columns and labels:
GSK-3β = GSK-3β activity in cells by glycogen synthase phosphorylation, Western immunoblotting; assay type: cell-based
XIAP = test: NFκB-mediated expression of XIAP in pancreatic cancer cells; assay type: cell-based
[1] = molecular target: T1, recombinant human His6-GSK-3β (Homo sapiens, UniProt P49841); test: GSK-3β kinase assay, [γ32P] transfer to primed glycogen synthase peptide; assay type: biochemical; settings: 10 μM ATP; 10 μM pGSM peptide; 30 minutes at 30° C.; read-out: IC50 (nM), GSK-3β inhibition;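 note: phosphate incorporation quantified by liquid scintillation counting of the filters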
T1 construct: His6; purchased EMD Biosciences
T1 sequence (P49841 whole entry): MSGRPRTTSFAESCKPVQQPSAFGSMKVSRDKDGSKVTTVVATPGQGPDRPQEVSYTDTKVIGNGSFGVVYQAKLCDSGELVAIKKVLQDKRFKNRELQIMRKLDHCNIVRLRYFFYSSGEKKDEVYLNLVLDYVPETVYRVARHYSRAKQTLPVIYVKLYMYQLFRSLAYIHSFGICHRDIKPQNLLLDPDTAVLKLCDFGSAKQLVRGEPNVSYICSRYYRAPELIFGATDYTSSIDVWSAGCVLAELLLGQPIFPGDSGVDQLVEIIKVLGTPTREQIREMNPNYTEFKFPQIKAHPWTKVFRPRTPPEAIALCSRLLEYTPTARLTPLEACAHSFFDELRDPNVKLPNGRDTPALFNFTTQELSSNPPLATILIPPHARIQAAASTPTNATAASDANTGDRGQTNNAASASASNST

SKOV3 = test: Antiproliferation assay, ovarian cancer cells; assay type: cell-based; settings: Homo sapiens, SK-OV-3; ovarian cancer cell proliferation
Procedure: (§1) The pancreatic cancer cell lines BxPc-3, HupT3, MiaPaCa-2, Panc 04.03, and SU86.86 were obtained from ATCC (Rockville, Md.) and were grown in medium (DMEM or RPMI) containing 10% fetal calf serum and L-glutamine. Pancreatic cancer cells were plated out in duplicate into 6-wells of a 96-well microtiter plate at 2.5−4×10^3 cells per well. Four-hours post plating, individual wells were treated with diluent (DMSO) or varying concentrations of commercial compounds, AR-A014418 and SB216763, or the indicated GSK inhibitors of this invention from a concentration of 1 nM to 50 microM. […] The IC50s were calculated using XLfit (IDBS Limited, Guildford, UK).
(§2) Similar antiproliferation assays were performed using ovarian cancer cells. Compound 40 is of particular interest for inhibition of ovarian cancer cell proliferation.

OVCA432 = test: Antiproliferation assay, ovarian cancer cells; assay type: cell-based; settings: ovarian cancer cell proliferation
Procedure: as §1, §2

[2] = test system: pancreatic cancer cell lines; test: Proliferation and survival of pancreatic cancer cells (overall statements); assay type: cell-based
Procedure: as §1

MIAPaCa-2 = test: Antiproliferation MTS assay, pancreatic cancer cells; assay type: cell-based; settings: Homo sapiens
mice = settings: Hanania et al. 2005, Brody et al. 2003; cited from earlier work
PKCβ2 = PKCβ2 (Homo sapiens, UniProt P05771); test: Inhibition of various kinases (% inhibition); assay type: biochemical
Chain of PKCβ2 (P05771 1-673 isoform P05771-2): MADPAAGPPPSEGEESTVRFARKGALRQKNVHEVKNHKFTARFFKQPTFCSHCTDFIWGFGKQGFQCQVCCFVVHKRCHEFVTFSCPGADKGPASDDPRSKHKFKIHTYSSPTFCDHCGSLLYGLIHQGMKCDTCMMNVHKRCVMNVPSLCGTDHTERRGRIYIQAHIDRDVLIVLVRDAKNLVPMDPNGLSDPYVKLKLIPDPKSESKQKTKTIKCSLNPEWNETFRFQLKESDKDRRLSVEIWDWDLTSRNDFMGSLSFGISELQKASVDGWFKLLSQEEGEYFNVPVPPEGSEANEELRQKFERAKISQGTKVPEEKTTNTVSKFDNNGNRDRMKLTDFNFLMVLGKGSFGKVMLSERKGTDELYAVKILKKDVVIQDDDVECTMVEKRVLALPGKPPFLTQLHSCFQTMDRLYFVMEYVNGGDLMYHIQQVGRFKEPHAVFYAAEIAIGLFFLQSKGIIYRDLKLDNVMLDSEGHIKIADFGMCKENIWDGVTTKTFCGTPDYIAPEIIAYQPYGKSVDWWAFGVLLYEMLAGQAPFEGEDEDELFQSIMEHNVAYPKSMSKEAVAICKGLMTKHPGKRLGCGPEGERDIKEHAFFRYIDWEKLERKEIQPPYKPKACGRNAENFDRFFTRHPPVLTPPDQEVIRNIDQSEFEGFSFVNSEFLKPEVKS
Text: (§3) Additional examples of selectivity are illustrated in Table 4.

GSK3α = GSK3α (Homo sapiens, UniProt P49840); test: Inhibition of various kinases (% inhibition); assay type: biochemical
Chain of GSK3α (P49840 whole entry, species assumed): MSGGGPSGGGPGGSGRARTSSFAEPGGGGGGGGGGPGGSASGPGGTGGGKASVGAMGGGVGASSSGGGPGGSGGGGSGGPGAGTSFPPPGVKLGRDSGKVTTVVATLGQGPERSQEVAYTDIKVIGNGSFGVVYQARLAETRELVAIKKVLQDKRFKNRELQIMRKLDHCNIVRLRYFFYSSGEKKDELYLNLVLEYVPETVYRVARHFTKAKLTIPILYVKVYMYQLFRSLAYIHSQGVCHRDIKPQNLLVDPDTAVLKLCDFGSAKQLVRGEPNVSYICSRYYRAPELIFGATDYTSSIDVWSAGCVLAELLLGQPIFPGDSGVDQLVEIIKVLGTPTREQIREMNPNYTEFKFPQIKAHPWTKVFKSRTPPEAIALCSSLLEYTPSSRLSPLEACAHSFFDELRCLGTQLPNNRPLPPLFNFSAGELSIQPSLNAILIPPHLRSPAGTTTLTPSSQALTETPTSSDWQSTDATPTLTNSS
Text: as §3

CDK2 = CDK2 (Homo sapiens, UniProt P24941); test: Inhibition of various kinases (% inhibition); assay type: biochemical
Text: as §3

PDK1 = molecular target: T2, PDK1 (Homo sapiens, UniProt O15530); test: Inhibition of various kinases (% inhibition); assay type: biochemical
T2 sequence (O15530 1-556): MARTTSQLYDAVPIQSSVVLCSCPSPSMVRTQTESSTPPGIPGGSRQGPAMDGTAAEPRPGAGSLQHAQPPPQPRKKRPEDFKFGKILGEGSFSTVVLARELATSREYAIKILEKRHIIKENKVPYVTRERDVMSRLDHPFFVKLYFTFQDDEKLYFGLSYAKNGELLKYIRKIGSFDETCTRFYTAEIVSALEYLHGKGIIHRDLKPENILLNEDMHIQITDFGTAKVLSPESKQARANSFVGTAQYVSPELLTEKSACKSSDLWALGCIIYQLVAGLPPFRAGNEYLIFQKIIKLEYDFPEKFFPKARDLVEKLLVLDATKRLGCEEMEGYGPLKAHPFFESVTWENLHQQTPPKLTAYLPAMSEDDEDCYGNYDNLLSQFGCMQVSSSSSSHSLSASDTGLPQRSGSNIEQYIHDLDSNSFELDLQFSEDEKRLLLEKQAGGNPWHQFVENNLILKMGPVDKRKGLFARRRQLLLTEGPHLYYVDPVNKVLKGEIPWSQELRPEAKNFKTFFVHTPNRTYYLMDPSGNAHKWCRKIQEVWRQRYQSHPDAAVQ
Text: as §3

[3] = test system: pancreatic cancer cell lines; settings: BXPC3, HupT3 and MiaPaCa-2; Ougolkov et al. (2007) Blood 110: 735-742; cited from earlier work
BXPC-3 = test: Antiproliferation MTS assay, pancreatic cancer cells; assay type: cell-based; settings: Homo sapiens, BXPC-3, as reported in Gaisina et al. (2009) J. Med. Chem. 52(7), 1853-1863
HupT3 = test: as above; assay type: cell-based; settings: Homo sapiens, HuP-T3, as reported in Gaisina et al. (2009) J. Med. Chem. 52(7), 1853-1863
[4] = MIA PaCa-2, as reported in Gaisina et al. (2009) J. Med. Chem. 52(7), 1853-1863

SMILES | IC50 (MIAPaCa-2; MIA PaCa-2, 72 hrs, MTS) [µM] | IC50 (MIAPaCa-2; [4]) [µM] | GSK-3β activity in pancreatic cancer cells (phosphorylation of glycogen synthase) (GSK-3β) | NFκB-mediated expression of XIAP (XIAP) | IC50 [1] [nM] | Pancreatic cancer cell proliferation, reference compounds [3] | further results
Cn1cc(C2=C(c3coc4ccc(F)cc34)C(=O)NC2=O)c2cc3c(cc21)OCO3 [Compound 40, 3-(5-Fluoro-benzofuran-3-yl)-4-(5-methyl-5H-[1,3]dioxolo[4,5-f]indol-7-yl)-pyrrole-2,5-dione] |  |  | effectively inhibited GSK-3β activity | pronounced decrease in NFκB-mediated expression of XIAP | 708 ± 156 |  | IC50 (SKOV3): 10.5 µM; IC50 (OVCA432): 11.2 µM
CCCC(CCC)C(=O)O [valporate] |  |  |  |  |  |  | Sensorimotor gating (prepulse inhibition) (mice): improve sensorimotor gating
COc1cccc2c(C3=C(c4cn(C)c5cc(I)c(F)cc45)C(=O)NC3=O)coc12 [Compound 10, 3-(5-Fluoro-6-iodo-1-methyl-1H-indol-3-yl)-4-(7-methoxy-benzofuran-3-yl)-pyrrole-2,5-dione] |  |  | effectively inhibited GSK-3β activity | pronounced decrease in NFκB-mediated expression of XIAP | 247 ± 28 |  | inhibition at 1 µM (PKCβ2; 1 μM): 2%; inhibition at 10 µM (PKCβ2; 10 μM): 15%; inhibition at 1 µM (GSK3α; 1 μM): 60%; inhibition at 10 µM (GSK3α; 10 μM): 95%; inhibition at 1 µM (CDK2; 1 μM): 9%; inhibition at 10 µM (CDK2; 10 μM): 35%; inhibition at 1 µM (PDK1; 1 μM): -1%; inhibition at 10 µM (PDK1; 10 μM): 6%
COc1ccc(CNC(=O)Nc2ncc([N+](=O)[O-])s2)cc1 [AR-A014418, reference compound] | 25 | 29 ± 1.7 |  |  |  | significant decrease in pancreatic cancer cell proliferation | IC50 (BXPC-3): 14 ± 0.6 µM; IC50 (HupT3): 22 ± 2.1 µM

More lines, main results first:

IC50 (MIAPaCa-2; MIA PaCa-2, 72 hrs, MTS) [µM] | IC50 (MIAPaCa-2; [4]) [µM] | SMILES | GSK-3β activity in pancreatic cancer cells (phosphorylation of glycogen synthase) (GSK-3β) | NFκB-mediated expression of XIAP (XIAP) | IC50 [1] [nM] | Pancreatic cancer cell proliferation, reference compounds [3] | further results
> 50 |  | COc1cc2c(C3=C(c4coc5ccccc45)C(=O)NC3=O)cn(C)c2cc1Cl [Compound 42, 3-Benzofuran-3-yl-4-(6-chloro-5-methoxy-1-methyl-1H-indol-3-yl)-pyrrole-2,5-dione] | did not affect GSK-3β activity |  | 440 ± 22 |  | Proliferation and survival of pancreatic cancer cells [2]: did not affect GSK-3β activity, proliferation or survival
25 | 25 ± 0.9 | Cn1cc(C2=C(c3ccc(Cl)cc3Cl)C(=O)NC2=O)c2ccccc21 [SB216763, reference compound] |  |  |  | significant decrease in pancreatic cancer cell proliferation | 
